Measurements as given in patent US12233066B2, “Combinations of inhibitors of influenza virus replication” (COCRYSTAL PHARMA, INC., priority 2018, dated 2025).
Where two headings read alike, the source gives them in different places.

Assays:
[1] = test system: Influenza virus A/PR/8/34 (H1N1); experiment: Cytopathic effect (CPE) assay of two-drug combinations in MDCK cells, MacSynergy II analysis; format: cell-based
influenza B = experiment: Antiviral activity of the combinations against influenza B; format: cell-based; details: combination with Compound 1
[2] = combination with Compound 1, A/PR/8/34 (H1N1) in MDCK cells, 0.125-8x EC50 checkerboard, MacSynergy II

Row | SMILES | Antagonism volume (95%) [1, 2] | Synergy volume (95%) [1, 2] | Combination effect ([1]; combination with Compound 1, A/PR/8/34 (H1N1) in MDCK cells, MacSynergy II) | Synergistic effect in influenza antiviral CPE assays ([1]; combination with Compound 1, IFV A/PR/8/34 (H1N1)) | Antiviral activity against influenza B (influenza B) | Synergy volume (95%) [1] | Combination effect [1] | Synergistic effect in influenza antiviral CPE assays [1]
1 | CCC(CC)O[C@@H]1C=C(C(=O)O)C[C@H](N)[C@H]1NC(C)=O [Oseltamivir acid, oseltamivir acid] | −9.19 | 269.37 | Strong synergism | strong synergistic effect | exhibit antiviral activity | – | – | –
2 | O=C1c2c(O)c(=O)ccn2N([C@@H]2c3ccccc3SCc3c2ccc(F)c3F)[C@@H]2COCCN12 [Baloxavir, baloxavir] | −12.28 | – | – | – | – | 285.84 | – | –
3 | NC(=O)c1nc(F)c[nH]c1=O [Favipiravir, favipiravir] | −3.15 | – | – | – | exhibit antiviral activity | 413.85 | Strong synergism | strong synergistic effect
